From patent US20130102595A1 (Curis, Inc., priority 2011, published 2013) come the findings set out here.

Series [1] has as its system HDACs (HeLa cell nuclear extracts). Kind of series: HDAC enzymatic activity, Biomol Color de Lys system. The conditions noted are these: 1 hour, 25° C. Format: biochemical. In short, it runs like this: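 IC50 from sigmoidal fit of developer-terminated fluorescence (ex 350-380/em 440-460 nm). Reaction: 1 h at room temperature (25 °C), HeLa nuclear extract as HDAC source, artificial substrate, buffer of 50 mM Tris/Cl pH 8.0 with 137 mM NaCl, 2.7 mM KCl and 1 mM MgCl2.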

The next series addresses T1, PI3Kα (p110α/p85α) (Homo sapiens, UniProt P42336).
T1 construct: GST (N); made in house; host or cells: Baculovirus-infected Sf9 cells
Briefly: PI3Kα ADP-Glo assay. Type of series: biochemical. The following applies: 20 μM PIP2, 10 μM ATP, 30 minutes. The gist of the method:
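Luminescent ADP-Glo detection, after depletion of residual ATP, quantified ADP made by PI3Kα phosphorylating 20 μM PIP2 at 10 μM ATP. The kinase step ran 30 min at room temperature in HEPES pH 7.4 with MgCl2, DTT and orthovanadate, using baculovirus/Sf9-expressed full-length p110α/p85α complex.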
For orientation: ADP-Glo turns the ADP formed in a reaction into a luminescent signal.

The target of another series is T2, PI3Kβ (p110β/p85α) (Homo sapiens, UniProt P42338).
T2 construct: His (N); made in house; host or cells: Baculovirus-infected Sf9 cells
T2 sequence (P42338 whole entry): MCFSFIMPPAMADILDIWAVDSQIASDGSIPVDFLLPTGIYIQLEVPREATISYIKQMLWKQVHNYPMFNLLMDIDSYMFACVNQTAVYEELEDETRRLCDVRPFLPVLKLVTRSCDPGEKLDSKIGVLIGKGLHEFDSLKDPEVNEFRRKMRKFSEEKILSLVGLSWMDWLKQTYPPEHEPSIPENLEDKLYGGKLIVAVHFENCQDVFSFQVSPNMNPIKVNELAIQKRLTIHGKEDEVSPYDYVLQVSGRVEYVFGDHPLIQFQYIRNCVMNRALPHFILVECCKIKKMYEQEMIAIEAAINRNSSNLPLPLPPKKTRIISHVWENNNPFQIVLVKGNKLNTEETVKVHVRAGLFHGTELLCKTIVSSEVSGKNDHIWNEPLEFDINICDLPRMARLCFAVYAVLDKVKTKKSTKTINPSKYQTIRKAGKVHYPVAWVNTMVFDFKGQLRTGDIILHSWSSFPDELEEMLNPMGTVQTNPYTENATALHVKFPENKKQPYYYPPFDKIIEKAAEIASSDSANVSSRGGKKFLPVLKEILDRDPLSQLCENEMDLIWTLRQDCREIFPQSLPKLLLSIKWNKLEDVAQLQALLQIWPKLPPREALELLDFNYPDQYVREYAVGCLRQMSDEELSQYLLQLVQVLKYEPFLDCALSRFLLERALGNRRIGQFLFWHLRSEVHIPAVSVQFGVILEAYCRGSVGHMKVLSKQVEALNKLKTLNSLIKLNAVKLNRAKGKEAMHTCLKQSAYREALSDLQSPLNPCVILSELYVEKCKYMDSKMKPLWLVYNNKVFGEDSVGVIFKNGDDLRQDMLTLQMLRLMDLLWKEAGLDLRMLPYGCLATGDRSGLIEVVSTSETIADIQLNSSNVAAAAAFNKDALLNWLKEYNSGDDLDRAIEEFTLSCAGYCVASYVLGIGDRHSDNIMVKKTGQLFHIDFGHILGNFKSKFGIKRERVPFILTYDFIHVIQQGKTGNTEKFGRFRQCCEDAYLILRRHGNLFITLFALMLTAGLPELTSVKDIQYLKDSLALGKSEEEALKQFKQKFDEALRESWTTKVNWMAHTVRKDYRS
T2 sequence (P27986 whole entry partner): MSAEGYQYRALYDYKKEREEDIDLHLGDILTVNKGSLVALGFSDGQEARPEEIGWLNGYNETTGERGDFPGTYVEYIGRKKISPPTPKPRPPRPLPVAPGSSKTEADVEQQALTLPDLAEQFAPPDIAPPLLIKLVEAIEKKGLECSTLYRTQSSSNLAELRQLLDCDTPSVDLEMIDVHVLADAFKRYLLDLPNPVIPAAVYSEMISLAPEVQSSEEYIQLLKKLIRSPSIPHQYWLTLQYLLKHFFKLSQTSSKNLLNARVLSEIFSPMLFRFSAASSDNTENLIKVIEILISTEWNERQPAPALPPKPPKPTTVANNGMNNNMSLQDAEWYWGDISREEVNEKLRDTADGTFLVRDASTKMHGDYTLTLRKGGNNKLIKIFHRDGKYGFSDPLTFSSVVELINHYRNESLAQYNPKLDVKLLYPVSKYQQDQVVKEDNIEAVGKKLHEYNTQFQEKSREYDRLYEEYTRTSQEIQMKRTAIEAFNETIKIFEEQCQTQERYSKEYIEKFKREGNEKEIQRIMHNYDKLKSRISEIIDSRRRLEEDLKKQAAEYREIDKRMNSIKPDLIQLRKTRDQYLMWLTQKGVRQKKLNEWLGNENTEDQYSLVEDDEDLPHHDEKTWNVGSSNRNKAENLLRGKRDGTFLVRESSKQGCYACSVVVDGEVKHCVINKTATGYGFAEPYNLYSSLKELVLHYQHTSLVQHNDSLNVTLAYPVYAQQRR
Kind of series: PI3Kβ ADP-Glo assay. Type of series: biochemical. The conditions noted are these: 20 μM PIP2, 10 μM ATP, 90 minutes. On the procedure: (B) an In Vitro Assay which Determines the Ability of a Test Compound to Inhibit PI3Kβ.
(§1) Activity of PI3Kβ was measured using ADP-Glo assay from Promega. P13Kα, a complex of N-terminal His-tagged recombinant full-length human p110β (GenBank, Accession No. NM_006219) and untagged recombinant full length human p85α (GenBank Accession No. XM—043865) were co-expressed in a Baculovirus infected Sf9 cell expression system. The ADP-Glo assay was performed to measure the amount of ADP generated from ATP hydrolysis coupled with PIP2 phosphorylation by the purified recombinant PI3Kβ (p110β/p85α). PI3Kβ was incubated with 20 μM PIP2 substrate in the reaction buffer (10 mM Tris-HCl, pH 7.5, 50 mM NaCl, 5 mM MgCl2, 10 μM ATP and 0.5% DMSO) for 90 minutes at room temperature. The ADP generated was then detected by ADP-Glo assay from Promega, a luminescent ADP detection assay. The ADP-Glo assay is performed in two steps; first, after the kinase reaction, ADP-Glo Reagent is added to terminate the kinase reaction and deplete the remaining ATP. Second, the Kinase Detection Reagent is added to simultaneously convert ADP to ATP and allow the newly synthesized ATP to be measured using a luciferase/luciferin reaction.

The target of a further series is T3, PI3Kγ (p120γ) (Homo sapiens, UniProt P48736).
T3 construct: His (N); made in house; host or cells: Baculovirus-infected Sf9 cells
T3 sequence (P48736 whole entry): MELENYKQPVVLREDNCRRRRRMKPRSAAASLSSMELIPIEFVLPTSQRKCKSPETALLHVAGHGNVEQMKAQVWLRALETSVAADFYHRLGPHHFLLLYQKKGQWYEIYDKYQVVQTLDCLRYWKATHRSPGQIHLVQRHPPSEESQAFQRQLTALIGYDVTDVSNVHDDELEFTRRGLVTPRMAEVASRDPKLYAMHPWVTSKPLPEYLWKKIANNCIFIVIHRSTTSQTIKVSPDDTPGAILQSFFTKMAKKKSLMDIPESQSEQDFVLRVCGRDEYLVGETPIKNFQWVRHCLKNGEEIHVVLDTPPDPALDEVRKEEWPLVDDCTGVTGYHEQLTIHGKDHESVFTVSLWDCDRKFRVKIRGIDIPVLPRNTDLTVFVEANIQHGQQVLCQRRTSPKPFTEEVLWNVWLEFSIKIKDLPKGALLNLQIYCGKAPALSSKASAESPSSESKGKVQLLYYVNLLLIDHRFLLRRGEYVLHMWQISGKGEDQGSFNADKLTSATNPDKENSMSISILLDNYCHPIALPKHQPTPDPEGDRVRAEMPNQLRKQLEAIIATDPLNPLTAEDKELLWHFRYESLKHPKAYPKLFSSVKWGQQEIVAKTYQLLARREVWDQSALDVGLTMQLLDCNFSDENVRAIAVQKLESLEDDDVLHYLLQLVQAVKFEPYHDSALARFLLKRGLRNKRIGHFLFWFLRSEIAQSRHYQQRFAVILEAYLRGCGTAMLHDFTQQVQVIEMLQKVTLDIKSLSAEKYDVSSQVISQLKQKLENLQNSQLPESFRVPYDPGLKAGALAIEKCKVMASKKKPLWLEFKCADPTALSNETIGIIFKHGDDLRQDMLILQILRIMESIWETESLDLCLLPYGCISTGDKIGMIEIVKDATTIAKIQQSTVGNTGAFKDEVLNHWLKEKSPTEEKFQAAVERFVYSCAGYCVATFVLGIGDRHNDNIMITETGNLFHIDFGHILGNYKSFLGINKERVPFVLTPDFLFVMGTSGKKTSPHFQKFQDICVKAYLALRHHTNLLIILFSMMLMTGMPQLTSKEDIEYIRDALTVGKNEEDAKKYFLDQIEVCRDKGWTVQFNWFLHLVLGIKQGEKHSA
Briefly: PI3Kγ ADP-Glo assay. Type of series: biochemical. The following applies: 20 μM PIP2, 10 μM ATP, 90 minutes. The protocol:
(d) an In Vitro Assay which Determines the Ability of a Test Compound to Inhibit PI3Kγ.
as §1, with “PI3Kγ” for “PI3Kβ”, “PI3Kγ,” for “P13Kα, a complex of”, “p120γ” for “p110β”, “AF327656) was expressed” for “NM_006219) and untagged recombinant full length human p85α (GenBank Accession No. XM—043865) were co-expressed”, “PI3Kγ […]. PI3Kγ” for “PI3Kβ (p110β/p85α). PI3Kβ”

The next series has as its target T4, PI3Kδ (p110δ/p85α) (Homo sapiens, UniProt O00329).
T4 construct: GST (N); made in house; host or cells: Baculovirus-infected Sf9 cells
Briefly: PI3Kδ ADP-Glo assay. Type of series: biochemical. The following applies: 20 μM PIP2, 10 μM ATP, 90 minutes. The protocol:
(c) an In Vitro Assay which Determines the Ability of a Test Compound to Inhibit PI3Kδ.
as §1, with “PI3Kδ” for “PI3Kβ”, “PI3Kδ,” for “P13Kα,”, “GST-tagged” for “His-tagged”, “p110δ” for “p110β”, “NM_005026)” for “NM_006219)”, “PI3Kδ (p110δ/p85α). PI3Kδ” for “PI3Kβ (p110β/p85α). PI3Kβ”

Series [2] concerns the target T5, mTor serine/threonine protein kinase (Homo sapiens, UniProt P42345).
T5 construct: FLAG; made in house; host or cells: Baculovirus expression system in Sf21 cells
Briefly: mTor kinase radioisotope assay. Format: biochemical. The conditions noted are these: 70 uM ATP, 40 minutes; read-out: m-TOR IC50. The gist of the method:
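FLAG-tagged full-length recombinant human mTor from baculovirus/Sf21, incubated with p70S6K C-terminal fragment (2 mg/ml) and 70 uM ATP plus 33P-ATP tracer in 50 mM HEPES pH 7.5, 3 mM MnCl2, 40 min at room temperature. Phosphoric acid stop, filtermat capture, scintillation counting; IC50 from sigmoidal dose-response fit.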

For a further series, the system named is SWI-116. Kind of series: Cell proliferation assay (CellTiter-Glo). Type of series: cell-based. The following applies: Colon; 72 hours, 0.5% fetal bovine serum; read-out: antiproliferative activity IC50, SWI-116. In short, it runs like this: (§2)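 5,000–10,000 cells/well; compound titration, 72 h, 0.5% FBS. ATP luminescence read 30 min after lysis/substrate addition.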
Background: Cellular ATP, detected with luciferase, serves as a proxy for viable cell number.

The subject of a further series is Calu6. Kind of series: Cell proliferation assay (CellTiter-Glo). Format: cell-based. The following applies: Homo sapiens, Calu-6; NSCLC; 72 hours, 0.5% fetal bovine serum; read-out: antiproliferative activity IC50, Calu6. In short, it runs like this:
as §2

A further series has as its system OPM-2. Briefly: Cell proliferation assay (CellTiter-Glo). The conditions noted are these: Homo sapiens, Multiple Myeloma, 72 hours, 0.5% fetal bovine serum, read-out: antiproliferative activity IC50, OPM-2. Format: cell-based. The gist of the method: as §2
For the next series, the system named is WiDr. Briefly: Cell proliferation assay (CellTiter-Glo). The following applies: Homo sapiens, Colon, 72 hours, 0.5% fetal bovine serum, read-out: antiproliferative activity IC50, WiDr. Type of series: cell-based. The gist of the method: as §2
The test system of the next series is CFPAC-1. Briefly: Cell proliferation assay (CellTiter-Glo). The following applies: Homo sapiens, Pancreas, 72 hours, 0.5% fetal bovine serum, read-out: antiproliferative activity IC50, CFPAC-1. Type of series: cell-based. In short, it runs like this: as §2
In another series the test system is CaPan1. Kind of series: Cell proliferation assay (CellTiter-Glo). The conditions noted are these: Homo sapiens, CAPAN-1; Pancreas; 72 hours, 0.5% fetal bovine serum; read-out: antiproliferative activity IC50, CaPan1. Format: cell-based. The gist of the method:
as §2

Another series relates to CaPan2. Kind of series: Cell proliferation assay (CellTiter-Glo). Type of series: cell-based. The conditions noted are these: Homo sapiens, Capan-2; Pancreas; 72 hours, 0.5% fetal bovine serum; read-out: antiproliferative activity IC50, CaPan2. The gist of the method: as §2
Another series concerns MDA-MB-231. Briefly: Cell proliferation assay (CellTiter-Glo). Type of series: cell-based. The following applies: Homo sapiens, Breast, 72 hours, 0.5% fetal bovine serum, read-out: antiproliferative activity IC50, MDA-MB-231. The gist of the method:
as §2

A further series concerns MiaPaca1. Kind of series: Cell proliferation assay (CellTiter-Glo). Format: cell-based. The conditions noted are these: Pancreas; 72 hours, 0.5% fetal bovine serum; read-out: antiproliferative activity IC50, MiaPaca1. In short, it runs like this: as §2
A further series concerns PANC-1. Briefly: Cell proliferation assay (CellTiter-Glo). Format: cell-based. The following applies: Homo sapiens, Pancreas, 72 hours, 0.5% fetal bovine serum, read-out: antiproliferative activity IC50, PANC-1. In short, it runs like this: as §2
The subject of a further series is SW1990. Kind of series: Cell proliferation assay (CellTiter-Glo). Format: cell-based. The following applies: Homo sapiens, Pancreas, 72 hours, 0.5% fetal bovine serum, read-out: antiproliferative activity IC50, SW1990. In short, it runs like this:
as §2

The test system of a further series is A549. Kind of series: Cell proliferation assay (CellTiter-Glo). Format: cell-based. The conditions noted are these: Homo sapiens, NSCLC, 72 hours, 0.5% fetal bovine serum, read-out: antiproliferative activity IC50, A549. The gist of the method:
as §2

T1 sequence (P42336 whole entry): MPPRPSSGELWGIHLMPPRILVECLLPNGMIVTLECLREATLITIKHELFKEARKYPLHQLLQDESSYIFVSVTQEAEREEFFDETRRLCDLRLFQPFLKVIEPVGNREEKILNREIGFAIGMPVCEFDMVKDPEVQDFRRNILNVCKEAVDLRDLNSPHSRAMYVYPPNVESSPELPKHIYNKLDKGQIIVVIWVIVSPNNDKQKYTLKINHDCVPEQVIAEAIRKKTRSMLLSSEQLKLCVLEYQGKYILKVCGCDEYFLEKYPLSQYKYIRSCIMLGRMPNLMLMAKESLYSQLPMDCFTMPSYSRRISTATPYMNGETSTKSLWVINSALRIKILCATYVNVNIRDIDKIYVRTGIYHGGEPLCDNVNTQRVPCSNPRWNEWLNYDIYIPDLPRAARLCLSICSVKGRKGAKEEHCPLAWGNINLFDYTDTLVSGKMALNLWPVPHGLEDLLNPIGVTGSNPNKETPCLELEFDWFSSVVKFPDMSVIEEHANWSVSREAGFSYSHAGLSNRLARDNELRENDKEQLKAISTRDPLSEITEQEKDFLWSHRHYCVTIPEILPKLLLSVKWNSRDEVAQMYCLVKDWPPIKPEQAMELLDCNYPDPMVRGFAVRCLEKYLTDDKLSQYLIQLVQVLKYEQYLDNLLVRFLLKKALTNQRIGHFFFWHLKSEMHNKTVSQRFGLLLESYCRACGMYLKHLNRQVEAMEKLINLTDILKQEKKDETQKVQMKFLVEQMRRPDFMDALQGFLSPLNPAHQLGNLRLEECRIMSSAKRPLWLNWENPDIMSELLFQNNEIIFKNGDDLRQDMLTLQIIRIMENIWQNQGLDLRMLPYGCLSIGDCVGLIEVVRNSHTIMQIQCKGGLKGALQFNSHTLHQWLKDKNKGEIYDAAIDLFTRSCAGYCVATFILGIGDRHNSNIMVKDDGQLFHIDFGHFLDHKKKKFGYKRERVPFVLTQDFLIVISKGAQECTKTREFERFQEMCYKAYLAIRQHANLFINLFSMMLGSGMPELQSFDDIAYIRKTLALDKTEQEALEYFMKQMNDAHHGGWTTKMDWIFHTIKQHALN
T1 sequence (P27986 whole entry partner): as the sequence (P27986 whole entry partner) above
T4 sequence (O00329 whole entry): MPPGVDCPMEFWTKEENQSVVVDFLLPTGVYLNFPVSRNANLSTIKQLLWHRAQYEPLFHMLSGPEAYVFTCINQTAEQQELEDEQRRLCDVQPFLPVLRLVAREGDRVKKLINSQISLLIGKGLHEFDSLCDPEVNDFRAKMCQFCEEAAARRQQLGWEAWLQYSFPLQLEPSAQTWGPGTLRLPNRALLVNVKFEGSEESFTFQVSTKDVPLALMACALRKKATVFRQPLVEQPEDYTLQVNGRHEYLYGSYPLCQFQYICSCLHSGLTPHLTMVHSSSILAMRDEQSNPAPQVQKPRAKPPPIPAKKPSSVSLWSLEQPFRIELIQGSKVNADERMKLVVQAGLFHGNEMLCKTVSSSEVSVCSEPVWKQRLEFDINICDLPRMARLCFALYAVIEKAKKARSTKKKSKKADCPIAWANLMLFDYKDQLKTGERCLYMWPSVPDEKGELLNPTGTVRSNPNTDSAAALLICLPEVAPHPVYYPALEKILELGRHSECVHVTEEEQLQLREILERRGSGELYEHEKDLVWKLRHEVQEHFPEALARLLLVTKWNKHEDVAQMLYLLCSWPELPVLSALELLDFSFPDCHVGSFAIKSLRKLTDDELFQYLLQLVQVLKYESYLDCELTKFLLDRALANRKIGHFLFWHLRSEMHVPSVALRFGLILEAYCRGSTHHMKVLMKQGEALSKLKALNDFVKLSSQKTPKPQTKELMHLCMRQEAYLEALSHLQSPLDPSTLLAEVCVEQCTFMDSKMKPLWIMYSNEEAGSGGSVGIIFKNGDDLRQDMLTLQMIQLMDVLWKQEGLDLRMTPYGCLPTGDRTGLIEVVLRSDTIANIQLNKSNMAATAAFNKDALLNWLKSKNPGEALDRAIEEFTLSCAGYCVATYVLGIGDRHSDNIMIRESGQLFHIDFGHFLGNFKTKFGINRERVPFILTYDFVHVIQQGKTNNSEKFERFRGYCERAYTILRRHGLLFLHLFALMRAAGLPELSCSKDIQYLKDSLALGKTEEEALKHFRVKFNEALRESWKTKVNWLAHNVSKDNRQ
T4 sequence (P27986 whole entry partner): as the sequence (P27986 whole entry partner) above

By IC50 is commonly meant the midpoint of a concentration-inhibition curve. By melting point is commonly meant the temperature, or range, at which the solid turns liquid. For `O=C(NO)c1cnc(N(CCO)Cc2cc3nc(-c4cccc5[nH]ncc45)nc(N4CCOCC4)c3s2)nc1` [Compound 86, 2-(((2-(1H-indazol-4-yl)-4-morpholinothieno[3,2-d]pyrimidin-6-yl)methyl)(2-hydroxyethyl)amino)-N-hydroxypyrimidine-5-carboxamide], the melting point was in the range of 190 to 194 °C. Also, the IC50 in series [1] was < 100 nM. The IC50 at PI3Kα (p110α/p85α) is < 100 nM. Further, the IC50 on PI3Kβ (p110β/p85α) was < 100 nM.

On to `O=C(NO)c1cnc(NCc2cc3nc(-c4cccc5[nH]ncc45)nc(N4CCOCC4)c3s2)nc1` [Compound 53, 2-((2-(1H-indazol-4-yl)-4-morpholinothieno[3,2-d]pyrimidin-6-yl)methylamino)-N-hydroxypyrimidine-5-carboxamide], for which the melting point fell in the range of 234 to 237 °C. In series [1], the IC50 is < 100 nM. Moreover, the IC50 at PI3Kα (p110α/p85α) was < 100 nM. Besides, the IC50 against PI3Kβ (p110β/p85α) was < 100 nM. At PI3Kγ (p120γ), the IC50 is < 100 nM. Besides, the IC50 against PI3Kδ (p110δ/p85α) was < 100 nM.

With `CC(c1cc2nc(-c3cccc4[nH]ncc34)nc(N3CCOCC3)c2s1)N(C)c1ncc(C(=O)NO)cn1` (stereo not shown) [Compound 70], the 50% inhibitory concentration (IC50) is < 100 nM in series [1], < 100 nM at PI3Kα (p110α/p85α), 100 to 1000 nM in series [2] and 10 to 100 nM with SWI-116.

For `CN(Cc1cc2nc(-c3ccc(N)nc3)nc(N3CCOCC3)c2s1)c1ncc(C(=O)NO)cn1` [Compound 110, 2-(((2-(6-aminopyridin-3-yl)-4-morpholinothieno[3,2-d]pyrimidin-6-yl)methyl)(methyl)amino)-N-hydroxypyrimidine-5-carboxamide], the melting point is 175 to 181 °C. The IC50 in series [1] is < 100 nM. Moreover, at PI3Kα (p110α/p85α), the IC50 was < 100 nM. The IC50 in [2] is < 100 nM. Further, the IC50 in the series on Calu6 lay within 10 to 100 nM. Besides, in the series on OPM-2, the IC50 is < 10 nM. In addition, in the series on WiDr, the IC50 fell in the range of 10 to 100 nM.

Take `CN(Cc1cc2nc(-c3cccc(CO)c3)nc(N3CCOCC3)c2s1)c1ncc(C(=O)NO)cn1` [Compound 138, N-hydroxy-2-(((2-(3-(hydroxymethyl)phenyl)-4-morpholinothieno[3,2-d]pyrimidin-6-yl)methyl)(methyl)amino)pyrimidine-5-carboxamide]: the melting point lay in the range of 160 to 164 °C. Also, in [1], the IC50 was < 100 nM. Moreover, the IC50 against PI3Kα (p110α/p85α) is < 100 nM. Further, the IC50 in [2] was < 100 nM. Besides, the IC50 in the series with CFPAC-1 lay within 10 to 100 nM. Further, the IC50 with CaPan1 lay within 10 to 100 nM. The IC50 in the series with CaPan2 lay within 10 to 100 nM. Also, in the series on Calu6, the IC50 was 10 to 100 nM. The IC50 in the series with MDA-MB-231 lay in the range of 10 to 100 nM. For the same compound, the IC50 in the series with MiaPaca1 was in the range of 10 to 100 nM. In the series on OPM-2, the IC50 is < 10 nM. For the same compound, the IC50 in the series with PANC-1 was in the range of 10 to 100 nM. Moreover, in the series with SW1990, the IC50 lay within 10 to 100 nM. For the same compound, in the series on WiDr, the IC50 lay within 10 to 100 nM.

With `Cn1c(=O)n(-c2ccc(C(C)(C)C#N)cc2)c2c3cc(-c4cnc5ccccc5c4)ccc3ncc21` [BEZ-235, 2-methyl-2-(4-(3-methyl-2-oxo-8-(quinolin-3-yl)-2,3-dihydro-1H-imidazo[4,5-c]quinolin-1-yl)phenyl)propanenitrile, reference compound], the IC50 in the series on CFPAC-1 is 1000 to 10000 nM; in the series on CaPan1 it was 100 to 1000 nM; in the series with CaPan2, 1000 to 10000 nM; in the series with Calu6, 100 to 1000 nM; in the series with MDA-MB-231, > 10000 nM; in the series with MiaPaca1 it was 1000 to 10000 nM. The values for the IC50 with PANC-1, in the series on SW1990 and in the series with WiDr were 1000 to 10000 nM, 10 to 100 nM and 1000 to 10000 nM, respectively.

Consider `CN(Cc1cc2nc(-c3cnc(N)nc3)nc(N3CCOCC3)c2s1)c1ncc(C(=O)NO)cn1` [Compound 115, 2-(((2-(2-aminopyrimidin-5-yl)-4-morpholinothieno[3,2-d]pyrimidin-6-yl)methyl)(methyl)amino)-N-hydroxypyrimidine-5-carboxamide], for which the melting point lay in the range of 175 to 181 °C. Also, the IC50 in series [1] is < 100 nM. Besides, the IC50 against PI3Kα (p110α/p85α) is < 100 nM. Moreover, the IC50 in series [2] was < 100 nM. Further, the IC50 with A549 lay within 10 to 100 nM. In addition, the IC50 in the series on Calu6 was 10 to 100 nM. Besides, the IC50 in the series with OPM-2 was 10 to 100 nM. Also, the IC50 in the series with WiDr is 100 to 1000 nM.
